Consider two compounds from paper PMC12263422, “Cryo-EM structure of the human THIK-1 K2P K^+ channel reveals a lower Y gate regulated by lipids and anesthetics” (Nature Structural & Molecular Biology, 2025).

As usually defined, the EC50 is the midpoint of the concentration-response curve. Low values mean greater potency, high ones weaker potency.

The target in one assay is T1, THIK-2*-Y292A (Homo sapiens, UniProt Q9HB15, R11A/R12A/R14A/R15A/R16A/Y292A).
T1 construct: expressed in transfected cells; host or cells: Xenopus oocytes (mRNA injection)
T1 sequence (Q9HB15 1-430 R11A/R12A/R14A/R15A/R16A/Y292A): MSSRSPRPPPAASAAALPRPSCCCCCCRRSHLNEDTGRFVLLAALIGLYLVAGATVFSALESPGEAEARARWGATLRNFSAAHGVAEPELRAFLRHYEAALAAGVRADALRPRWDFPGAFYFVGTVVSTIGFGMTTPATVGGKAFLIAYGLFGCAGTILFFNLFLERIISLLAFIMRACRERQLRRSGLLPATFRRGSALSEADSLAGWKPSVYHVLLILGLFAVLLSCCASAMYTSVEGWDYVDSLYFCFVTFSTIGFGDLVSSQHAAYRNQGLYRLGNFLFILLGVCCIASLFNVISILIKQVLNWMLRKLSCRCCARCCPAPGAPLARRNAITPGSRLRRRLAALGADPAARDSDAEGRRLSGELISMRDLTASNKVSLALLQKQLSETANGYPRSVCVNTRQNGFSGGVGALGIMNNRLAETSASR
The assay is described as follows: Inside-out excised patch recordings, oocytes, THIK-2* Y292A. Format: cell-based. From the text:
(§1) Human K2P13.1 THIK-1 (GenBank accession number: NM_022054) and human K2P12.1 THIK-2 (NM_022055.1) were used in this study. For functional expression studies, the respective K^+ channel subtype coding sequences were subcloned into the oocyte expression vector pSGEM or the dual-purpose expression vector pFAW[41] and verified by sequencing. All mutant channels were obtained by site-directed mutagenesis and verified by sequencing. To increase surface expression and macroscopic currents, measurements of THIK-2 channels used a mutated ER retention motif, (R11A R12A R14A R15A R16A; THIK-2*)[20]. Vector DNA was linearized with NheI or MluI, and mRNA was synthesized in vitro using the SP6 or T7 AmpliCap Max High Yield Message Maker Kit (Cellscript, USA) or HiScribe T7 ARCA mRNA Kit (New England Biolabs).
(§2) Two-electrode voltage–clamp (TEVC) studies were performed in Xenopus oocytes. All animal use conformed to the Guide for the Care and Use of Laboratory Animals (NIH Publication 85–23), and all experiments using Xenopus toads were approved by the local ethics panels. Oocytes were stored at 17 °C in ND96 recording solution composed of (in mM): 96 NaCl, 2 KCl, 1.8 CaCl2, 1 MgCl2, 5 HEPES (pH 7.5 adjusted with NaOH and HCl), supplemented with Na-pyruvate (275 mg L^–1), theophylline (90 mg L^–1) and gentamicin (50 mg L^–1). Oocytes were injected with 1 ng mRNA for WT or mutant channels, and were incubated for 24–48 h at 17 °C. Two-electrode voltage clamp recordings were then performed as previously described[42],[43]. For macroscopic patch–clamp measurements, oocytes were obtained as described above incubated at 17 °C in a solution containing (mM): 54 NaCl, 30 KCl, 2.4 NaHCO3, 0.82 MgSO4 ×7 H2O, 0.41 CaCl2, 0.33 Ca(NO3)2 ×4 H2O and 7.5 TRIS (pH 7.4 adjusted with NaOH and HCl) for 1–4 days before use. Excised patch recordings in inside-out configuration conditions were performed at room temperature. Patch pipettes were made from thick-walled borosilicate glass GB 200TF-8P (Science Products), had resistances of 0.2–0.5 MΩ (tip diameter, 10–25 µm) and filled with a pipette solution (in mM): 120 KCl, 10 HEPES and 3.6 CaCl2 (pH 7.4 adjusted with KOH and HCl). Intracellular bath solutions and compounds were applied to the cytoplasmic side of excised patches for the various K^+ channels through a gravity flow multi-barrel pipette system. The intracellular solution had the following composition (in mM): 120 KCl, 10 HEPES, 2 EGTA and 1 pyrophosphate (pH adjusted with KOH and HCl). Currents were recorded with an EPC10 amplifier (HEKA Electronics) and sampled at 10 kHz or higher, with filtering set to 3 kHz (–3 dB) or higher, as appropriate for sampling rate. For measurements of GPCR activation, whole-cell currents were recorded for THIK-1 in transiently transfected HEK-293 cells. Cells were stimulated by a ramp protocol between −100 and +60 mV (holding potential, −80 mV). The pipette solution was composed of (in mM): 140 KCl, 2 MgCl2, 1 CaCl2, 2.5 EGTA and 10 HEPES (pH 7.3 adjusted with KOH and HCl). The extracellular bath solution had the following composition (in mM): 135 NaCl, 5 KCl, 2 MgCl2, 2 CaCl2, 10 glucose and 10 HEPES pH (pH 7.3 adjusted with NaOH and HCl). Oxotremorine M (Oxo-M) was added to extracellular bath solution to obtain the final concentration. Single-channel currents were recorded with an Axopatch 200B amplifier through a Digidata 1440A digitizer (Molecular Devices). Data were filtered at 2 kHz and recorded at a 200-kHz sampling rate with the program Clampex (Molecular Devices). Pipette solution and bath solution for cell-attached recordings contained (in mM): 140 KCl, 2 MgCl2, 1 CaCl2 and 10 HEPES (pH 7.4 adjusted with KOH and HCl). For inside-out recordings, the bath solution contained (in mM): 140 KCl, 2 MgCl2, 1 CaCl2 and 10 HEPES (pH 7.2 adjusted with KOH and HCl). All experiments were conducted at room temperature. […]

A further assay has as its target T2, THIK-1 R92A (Homo sapiens, UniProt Q9HB14, R92A).
T2 construct: expressed in transfected cells; host or cells: Xenopus oocytes (mRNA injection)
T2 sequence (Q9HB14 1-408 R92A): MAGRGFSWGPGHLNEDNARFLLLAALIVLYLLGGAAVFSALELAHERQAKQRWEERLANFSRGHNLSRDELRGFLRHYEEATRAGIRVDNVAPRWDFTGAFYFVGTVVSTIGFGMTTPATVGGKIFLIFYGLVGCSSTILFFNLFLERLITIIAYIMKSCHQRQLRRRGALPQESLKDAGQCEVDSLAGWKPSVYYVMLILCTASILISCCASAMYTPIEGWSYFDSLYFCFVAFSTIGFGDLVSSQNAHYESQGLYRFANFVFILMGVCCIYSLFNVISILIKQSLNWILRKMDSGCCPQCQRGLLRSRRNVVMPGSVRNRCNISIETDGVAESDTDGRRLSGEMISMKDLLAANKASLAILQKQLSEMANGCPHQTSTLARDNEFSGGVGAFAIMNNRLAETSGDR
The assay can be described thus: Inside-out excised patch recordings, oocytes, THIK-1 R92A mutant (lipid activation). Format: cell-based. The conditions noted are these: for EC50: Linoleic acid EC50, THIK-1 R92A; for Fold activation with 30.0 µM linoleic acid: THIK-1 R92A.
Excerpt: as §1, §2

Several values for one entry are separate records, joined by “and”; a condition that tells them apart may be missing. Identical values can stand only once.

For the compound `CCCCC[N+](CCCCC)(CCCCC)CCCCC` [TPenA, tetrapentylammonium], the Normalized currents amounted to 1.00 on THIK-2*-Y292A (0.1 µM TPenA); 0.93 on THIK-2*-Y292A (1 µM TPenA); 0.74 at THIK-2*-Y292A (10 µM TPenA); 0.42 at THIK-2*-Y292A (100 µM TPenA); 0.09 on THIK-2*-Y292A (1000 µM TPenA); 0.07 at THIK-2*-Y292A (5000 µM TPenA). In addition, the “τ of 1 mM TPenA block” value at THIK-2*-Y292A (individual recordings) was 0.090 s and 0.080 s and 0.060 s and 0.150 s and 0.070 s; at THIK-2*-Y292A (mean), 0.09 s. The “τ of 1 mM TPenA release” value at THIK-2*-Y292A (individual recordings) is 0.680 s and 0.860 s and 0.410 s and 0.480 s and 1.100 s and 0.400 s; at THIK-2*-Y292A (mean), 0.66 s.

For `CCCCC/C=C\C/C=C\CCCCCCCC(=O)O` [linoleic acid], on THIK-1 R92A (individual recordings), the EC50 was 52.3 µM and 38.8 µM and 36.8 µM and 60.6 µM and 44.2 µM and 91.1 µM and 115 µM; the “Fold activation with 30.0 µM linoleic acid” value was 1.900 and 2.280 and 2.410 and 2.160 and 1.740 and 1.840 and 1.500 and 1.630 and 1.510. Also, on THIK-1 R92A (mean), the response was half-maximal at 62.6 µM (EC50) and the “Fold activation with 30.0 µM linoleic acid” value is recorded as 1.89.
